Key:
[1] = target: CASK (Homo sapiens, UniProt O14936); assay: KINOMEscan: CASK; type: binding; conditions: 1000 nM, read-out: Percent Control
[2] = target: AMPK-alpha1 (Homo sapiens, UniProt Q13131); assay: KINOMEscan: AMPK-alpha1; type: binding; conditions: 1000 nM, read-out: Percent Control
[3] = target: DCAMKL1 (Homo sapiens, UniProt O15075); assay: KINOMEscan: DCAMKL1; type: binding; conditions: 1000 nM, read-out: Percent Control
[4] = target: RET(V804M) (Homo sapiens, UniProt P07949, V804M); assay: KINOMEscan: RET(V804M); type: binding; conditions: 100 nM, read-out: Percent Control
[5] = target: CDK3 (Homo sapiens, UniProt Q00526); assay: KINOMEscan: CDK3; type: binding; conditions: 1000 nM, read-out: Percent Control
[6] = target: RET (Homo sapiens, UniProt P07949); assay: KINOMEscan: RET; type: binding; conditions: 100 nM, read-out: Percent Control
[7] = target: TRKA (Homo sapiens, UniProt P04629); assay: KINOMEscan: TRKA; type: binding; conditions: 100 nM, read-out: Percent Control
[8] = target: RIPK4 (Homo sapiens, UniProt P57078); assay: KINOMEscan: RIPK4; type: binding; conditions: 100 nM, read-out: Percent Control
[9] = test system: B-cells isolated from patients with treatment-naïve CLL; assay: Limiting-cell RNA sequencing (lcRNAseq); type: cell-based, human
Experimental: CLL cells isolated from patients were sorted for CD5^+/CD19^+ into lysis buffer. Libraries were prepared and sequenced as previously described.
P-TEFb’s role in regulating transcription through POLII CTD phosphorylation is a canonical function of this complex. To interrogate the transcriptional changes associated with VIP152 treatment, we treated B-cells, isolated from four patients with treatment-naïve CLL, with 1 µM VIP152 or DMSO for two hours followed by fluorescence-assisted cell sorting for 500 live (Sytox^−), CD45^+/CD5^+/CD19^+ cells (Fig. 3A). Our group has previously defined an analysis pipeline, named CLEAR, which identifies evenly distributed reads for differentially expressed gene (DEG) analysis. […] When we looked at the expression of these differentially abundant genes via an unsupervised clustered heatmap, we noted that there was high concordance between the patient samples with clustering dependent on treatment group (Fig. 3C). The treatment did induce decreased transcript abundance of genes previously reported to be controlled by CDK9 activity, namely JUNB, BTG1, and MCL1 [45, 46]. Downregulation of the anti-apoptotic MCL1 (LFC: −1.231056 & p-value = 0.02) likely contributes to the susceptibility of primary CLL cells to apoptosis (Fig. 2F, G). […] It has been established that AU-rich element (ARE) mRNA molecules are under tight temporal regulation and control a variety of cellular processes. Moreover, the relationship between P-TEFb mediated transcription and ARE-bearing mRNA has previously been described. […] We appreciate from our limiting-cell RNA sequencing experiments that the loss of tristetrapolin (ZFP36) transcripts (LFC: −4.02; adjusted p-value: 7.97*10^−40) and the upregulation of ribosomal transcripts, likely correspond to a possible compensatory mechanism by which these cells attempt to improve translational output and maximize transcript maintenance in response to VIP152-induced transcriptional shutdown. […] We looked at transcripts which had been shown by photoactivatable ribonucleoside cross-linking and immunoprecipitation (PAR-CLIP) to interact with ZFP36 [50]. […] Additionally, we chose to look at BCL2 transcript stability as ZFP36L1 has been shown in B cell lymphoma to negatively regulate BCL2 transcript stability. We performed an mRNA stability study on patient samples treated with VIP152 with Actinomycin-D and observed an increase in the half-lives of each of these transcripts including BCL2 (Fig. 3H–M).

[10] = target: MEK6 (Homo sapiens, UniProt P52564); assay: KINOMEscan: MEK6; type: binding; conditions: 1000 nM, read-out: Percent Control
[11] = test system: Nicotinic Acetylcholine; assay: Eurofins Diversity Panel; type: binding, human; conditions: hum, Conc. 10 μM
[12] = target: MAP3K1 (Homo sapiens, UniProt Q13233); assay: KINOMEscan: MAP3K1; type: binding; conditions: 1000 nM, read-out: Percent Control
[13] = target: GABAB1A (Homo sapiens, UniProt Q9UBS5); assay: Eurofins Diversity Panel; type: binding; conditions: hum, Conc. 10 μM
[14] = target: EPHA8 (Homo sapiens, UniProt P29322); assay: KINOMEscan: EPHA8; type: binding; conditions: 1000 nM, read-out: Percent Control
[15] = target: EPHB3 (Homo sapiens, UniProt P54753); assay: KINOMEscan: EPHB3; type: binding; conditions: 1000 nM, read-out: Percent Control
[16] = target: MAPKAPK5 (Homo sapiens, UniProt Q8IW41); assay: KINOMEscan: MAPKAPK5; type: binding; conditions: 1000 nM, read-out: Percent Control
[17] = target: DAPK2 (Homo sapiens, UniProt Q9UIK4); assay: KINOMEscan: DAPK2; type: binding; conditions: 1000 nM, read-out: Percent Control
[18] = target: Potassium Channel [KATP] (Cricetus cricetus, UniProt Q09427); assay: Eurofins Diversity Panel; type: binding, hamster; conditions: ham, Conc. 10 μM
Experimental: The structure and synthesis of VIP152 were recently described by Lücking et al.. (Fig. 1A); however, the selectivity of the molecule in cellular systems has yet to be explored. […] We also performed this experiment at 1000 nM, where CDK9 was inhibited at 99%. […] We found a strong concordance between our data and those of Lücking when comparing the most inhibited kinases. Potential off-target effects of VIP152 were next tested in vitro at a concentration of 10 µM for off-target activity against a broad range of receptors, transporters, ion channels, and enzymes (n = 138) using the Eurofins Diversity Panel.

[19] = target: CSNK1G2 (Homo sapiens, UniProt P78368); assay: KINOMEscan: CSNK1G2; type: binding; conditions: 1000 nM, read-out: Percent Control
[20] = target: SIK (Homo sapiens, UniProt P57059); assay: KINOMEscan: SIK; type: binding; conditions: 100 nM, read-out: Percent Control
[21] = target: TESK1 (Homo sapiens, UniProt Q15569); assay: KINOMEscan: TESK1; type: binding; conditions: 100 nM, read-out: Percent Control
[22] = target: ULK3 (Homo sapiens, UniProt Q6PHR2); assay: KINOMEscan: ULK3; type: binding; conditions: 100 nM, read-out: Percent Control
[23] = target: CAMK1 (Homo sapiens, UniProt Q14012); assay: KINOMEscan: CAMK1; type: binding; conditions: 1000 nM, read-out: Percent Control
[24] = target: WNK3 (Homo sapiens, UniProt Q9BYP7); assay: KINOMEscan: WNK3; type: binding; conditions: 100 nM, read-out: Percent Control

DCAMKL1, sequence (O15075 whole entry): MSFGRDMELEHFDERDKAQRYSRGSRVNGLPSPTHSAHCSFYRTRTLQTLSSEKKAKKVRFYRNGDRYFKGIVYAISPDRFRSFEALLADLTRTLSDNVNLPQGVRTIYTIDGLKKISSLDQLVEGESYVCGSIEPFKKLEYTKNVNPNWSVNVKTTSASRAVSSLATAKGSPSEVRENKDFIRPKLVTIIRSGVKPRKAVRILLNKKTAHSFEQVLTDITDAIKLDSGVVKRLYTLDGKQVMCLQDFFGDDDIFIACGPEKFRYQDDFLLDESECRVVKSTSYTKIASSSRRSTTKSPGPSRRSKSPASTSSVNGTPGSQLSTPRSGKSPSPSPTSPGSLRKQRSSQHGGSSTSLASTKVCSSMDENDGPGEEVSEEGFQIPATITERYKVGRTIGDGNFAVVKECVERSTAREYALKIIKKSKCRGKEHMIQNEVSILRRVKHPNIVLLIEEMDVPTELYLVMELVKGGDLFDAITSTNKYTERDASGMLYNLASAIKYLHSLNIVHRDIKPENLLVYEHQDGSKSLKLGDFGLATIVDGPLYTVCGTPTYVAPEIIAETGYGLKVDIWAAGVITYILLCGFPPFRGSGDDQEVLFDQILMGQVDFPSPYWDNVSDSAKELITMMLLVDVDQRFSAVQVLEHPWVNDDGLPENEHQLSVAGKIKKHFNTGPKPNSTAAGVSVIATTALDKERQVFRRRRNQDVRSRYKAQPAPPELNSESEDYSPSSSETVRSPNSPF
RET, sequence (P07949 29-1114): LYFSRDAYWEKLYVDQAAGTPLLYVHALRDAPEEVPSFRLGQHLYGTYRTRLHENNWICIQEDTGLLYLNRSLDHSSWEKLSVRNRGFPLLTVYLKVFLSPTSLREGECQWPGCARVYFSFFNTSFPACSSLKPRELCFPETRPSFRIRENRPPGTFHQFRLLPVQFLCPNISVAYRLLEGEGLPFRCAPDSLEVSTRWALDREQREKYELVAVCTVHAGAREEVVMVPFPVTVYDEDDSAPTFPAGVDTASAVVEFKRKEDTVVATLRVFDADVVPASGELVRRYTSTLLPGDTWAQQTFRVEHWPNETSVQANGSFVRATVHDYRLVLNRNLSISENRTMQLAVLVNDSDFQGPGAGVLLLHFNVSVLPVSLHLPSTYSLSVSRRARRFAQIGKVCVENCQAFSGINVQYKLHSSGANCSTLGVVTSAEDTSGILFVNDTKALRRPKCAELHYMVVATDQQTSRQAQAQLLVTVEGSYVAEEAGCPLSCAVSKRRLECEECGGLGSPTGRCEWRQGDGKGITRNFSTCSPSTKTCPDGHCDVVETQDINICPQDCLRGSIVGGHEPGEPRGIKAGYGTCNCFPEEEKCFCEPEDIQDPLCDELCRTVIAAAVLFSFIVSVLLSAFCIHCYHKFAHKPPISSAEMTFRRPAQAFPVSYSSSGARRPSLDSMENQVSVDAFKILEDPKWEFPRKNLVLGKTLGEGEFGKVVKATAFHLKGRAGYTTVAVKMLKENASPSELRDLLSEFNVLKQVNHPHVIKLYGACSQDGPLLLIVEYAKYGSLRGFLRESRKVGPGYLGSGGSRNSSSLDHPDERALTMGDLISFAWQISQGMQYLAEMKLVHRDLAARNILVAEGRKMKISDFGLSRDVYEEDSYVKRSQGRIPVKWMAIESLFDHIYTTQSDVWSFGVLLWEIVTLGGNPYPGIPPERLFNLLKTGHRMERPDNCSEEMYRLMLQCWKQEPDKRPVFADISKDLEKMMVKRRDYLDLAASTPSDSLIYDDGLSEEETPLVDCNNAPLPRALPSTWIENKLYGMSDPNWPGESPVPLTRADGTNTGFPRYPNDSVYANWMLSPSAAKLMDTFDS
RET(V804M), sequence (P07949 29-1114 V804M): as the sequence (P07949 29-1114) above, with V776M counted along it
Potassium Channel [KATP], sequence (Q09427 whole entry): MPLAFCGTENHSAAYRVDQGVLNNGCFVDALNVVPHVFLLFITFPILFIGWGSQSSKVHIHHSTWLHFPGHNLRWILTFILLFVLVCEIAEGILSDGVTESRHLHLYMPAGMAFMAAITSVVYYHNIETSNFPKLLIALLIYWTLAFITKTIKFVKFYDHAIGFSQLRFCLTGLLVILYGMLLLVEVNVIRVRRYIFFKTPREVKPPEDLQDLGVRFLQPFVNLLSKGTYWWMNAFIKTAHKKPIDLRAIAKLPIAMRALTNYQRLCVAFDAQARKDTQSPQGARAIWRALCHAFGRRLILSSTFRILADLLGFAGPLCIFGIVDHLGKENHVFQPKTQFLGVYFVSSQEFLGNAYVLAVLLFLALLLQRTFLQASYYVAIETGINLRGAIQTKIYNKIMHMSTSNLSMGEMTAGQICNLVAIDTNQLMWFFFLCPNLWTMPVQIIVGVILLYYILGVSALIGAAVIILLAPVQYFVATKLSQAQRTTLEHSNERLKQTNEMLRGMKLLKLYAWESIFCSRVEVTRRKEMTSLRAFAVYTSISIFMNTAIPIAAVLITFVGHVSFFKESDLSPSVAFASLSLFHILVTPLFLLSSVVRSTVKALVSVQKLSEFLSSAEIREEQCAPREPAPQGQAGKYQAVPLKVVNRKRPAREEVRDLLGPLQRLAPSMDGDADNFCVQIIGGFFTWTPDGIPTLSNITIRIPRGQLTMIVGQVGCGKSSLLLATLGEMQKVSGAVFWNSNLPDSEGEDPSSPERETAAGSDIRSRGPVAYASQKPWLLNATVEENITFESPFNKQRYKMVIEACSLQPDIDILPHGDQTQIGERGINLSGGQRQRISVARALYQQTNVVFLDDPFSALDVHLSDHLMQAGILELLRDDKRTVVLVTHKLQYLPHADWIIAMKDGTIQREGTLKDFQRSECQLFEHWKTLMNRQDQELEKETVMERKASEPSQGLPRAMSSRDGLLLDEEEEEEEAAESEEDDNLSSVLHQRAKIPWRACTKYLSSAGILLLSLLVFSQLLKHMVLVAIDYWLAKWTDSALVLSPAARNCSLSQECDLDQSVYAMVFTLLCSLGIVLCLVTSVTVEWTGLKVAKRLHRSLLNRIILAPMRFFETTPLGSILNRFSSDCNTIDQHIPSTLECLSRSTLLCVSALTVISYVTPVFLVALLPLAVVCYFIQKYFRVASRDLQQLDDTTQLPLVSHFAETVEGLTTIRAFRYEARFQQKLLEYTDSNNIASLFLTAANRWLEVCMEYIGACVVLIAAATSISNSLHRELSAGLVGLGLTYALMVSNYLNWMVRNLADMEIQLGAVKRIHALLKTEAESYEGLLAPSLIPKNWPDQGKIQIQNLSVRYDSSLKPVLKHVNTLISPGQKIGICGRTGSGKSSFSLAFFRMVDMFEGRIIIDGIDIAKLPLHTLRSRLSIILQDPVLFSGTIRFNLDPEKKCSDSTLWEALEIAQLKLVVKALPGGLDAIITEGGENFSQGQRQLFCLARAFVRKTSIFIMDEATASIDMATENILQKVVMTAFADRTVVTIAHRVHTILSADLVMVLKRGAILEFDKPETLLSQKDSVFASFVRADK
TRKA, sequence (P04629 33-796): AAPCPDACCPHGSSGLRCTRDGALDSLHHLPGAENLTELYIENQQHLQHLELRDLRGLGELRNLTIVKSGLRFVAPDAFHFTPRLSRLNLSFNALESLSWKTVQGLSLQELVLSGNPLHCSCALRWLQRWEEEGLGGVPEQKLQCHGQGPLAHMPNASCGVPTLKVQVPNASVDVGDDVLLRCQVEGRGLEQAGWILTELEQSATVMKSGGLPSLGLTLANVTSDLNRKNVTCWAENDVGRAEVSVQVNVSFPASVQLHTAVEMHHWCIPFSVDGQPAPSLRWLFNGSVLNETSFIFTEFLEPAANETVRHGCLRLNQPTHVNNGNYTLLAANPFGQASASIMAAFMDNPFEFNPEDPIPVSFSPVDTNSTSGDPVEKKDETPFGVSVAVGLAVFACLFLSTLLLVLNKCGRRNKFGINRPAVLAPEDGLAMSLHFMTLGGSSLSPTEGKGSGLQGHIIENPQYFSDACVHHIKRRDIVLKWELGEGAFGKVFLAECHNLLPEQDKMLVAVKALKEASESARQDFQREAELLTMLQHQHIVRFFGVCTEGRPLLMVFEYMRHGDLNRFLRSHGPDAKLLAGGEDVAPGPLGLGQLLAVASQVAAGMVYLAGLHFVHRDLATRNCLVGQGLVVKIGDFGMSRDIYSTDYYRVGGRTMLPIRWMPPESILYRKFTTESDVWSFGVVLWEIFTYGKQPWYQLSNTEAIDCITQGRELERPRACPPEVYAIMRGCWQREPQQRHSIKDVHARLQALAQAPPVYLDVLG
RIPK4, sequence (P57078 whole entry): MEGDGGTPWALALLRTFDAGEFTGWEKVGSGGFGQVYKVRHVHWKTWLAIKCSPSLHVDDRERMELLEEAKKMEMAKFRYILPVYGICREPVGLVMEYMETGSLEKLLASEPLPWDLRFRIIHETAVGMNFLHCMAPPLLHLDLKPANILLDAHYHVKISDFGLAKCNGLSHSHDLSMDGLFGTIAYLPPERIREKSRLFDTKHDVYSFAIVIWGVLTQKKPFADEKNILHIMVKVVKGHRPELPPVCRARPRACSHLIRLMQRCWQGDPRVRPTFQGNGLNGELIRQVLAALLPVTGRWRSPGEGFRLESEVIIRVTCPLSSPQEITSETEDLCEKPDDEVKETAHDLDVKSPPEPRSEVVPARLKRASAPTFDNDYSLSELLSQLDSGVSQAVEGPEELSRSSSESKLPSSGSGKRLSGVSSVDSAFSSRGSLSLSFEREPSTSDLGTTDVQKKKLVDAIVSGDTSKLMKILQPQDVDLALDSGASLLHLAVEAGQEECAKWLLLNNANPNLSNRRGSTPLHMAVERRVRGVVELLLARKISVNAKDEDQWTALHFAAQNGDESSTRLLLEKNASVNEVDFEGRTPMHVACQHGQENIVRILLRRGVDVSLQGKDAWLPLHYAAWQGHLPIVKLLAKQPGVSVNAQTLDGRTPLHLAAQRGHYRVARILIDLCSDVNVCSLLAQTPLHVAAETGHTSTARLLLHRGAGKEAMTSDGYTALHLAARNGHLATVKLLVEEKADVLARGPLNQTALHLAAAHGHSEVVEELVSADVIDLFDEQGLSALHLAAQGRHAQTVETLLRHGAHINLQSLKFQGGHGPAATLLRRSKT

`COc1cc(F)ccc1-c1cc(Nc2cc(CS(C)(=N)=O)ccn2)ncc1F` (stereo not drawn) [VIP152] gave a remaining binding at 1 µM [1] of 95%, a remaining binding at 1 µM [2] of 91% and a remaining binding at 1 µM [3] of 86%. For the same molecule, the remaining binding at 0.1 µM [4] was 100%, the remaining binding at 1 µM [5] was 37% and the remaining binding at 0.1 µM [6] was 100%. The remaining binding at 0.1 µM [7] was 65%, the remaining binding at 0.1 µM [8] was 100% and the “MCL1 transcript LFC” value ([9]; 1 µM, two hours vs DMSO) was −1.231. For the same molecule, the “ZFP36 transcript LFC” value ([9]; 1 µM, two hours vs DMSO) was −4.02, the “log2FoldChange A1BG” value ([9]; VIP152 2hr vs DMSO 2hr) was 0.4323 and the “log2FoldChange A1BG-AS1” value ([9]; VIP152 2hr vs DMSO 2hr) was 0.777. The “log2FoldChange AAAS” value ([9]; VIP152 2hr vs DMSO 2hr) was 0.1502, the “log2FoldChange AAGAB” value ([9]; VIP152 2hr vs DMSO 2hr) was 0.6327 and the “log2FoldChange AAMDC” value ([9]; VIP152 2hr vs DMSO 2hr) was 0.4489. The remaining binding at 1 µM [10] was 94%, the “% Inh.” value [11] was -9% and the remaining binding at 1 µM [12] was 78%. The inhibition at 10 µM [13] was 1%, the remaining binding at 1 µM [14] was 100% and the remaining binding at 1 µM [15] was 100%. For the same molecule, the remaining binding at 1 µM [16] was 89%, the remaining binding at 1 µM [17] was 89% and the inhibition at 10 µM [18] was -19%. For the same molecule, the remaining binding at 1 µM [19] was 93%, the remaining binding at 0.1 µM [20] was 100% and the remaining binding at 0.1 µM [21] was 100%. It also gave a remaining binding at 0.1 µM [22] of 96%, a remaining binding at 1 µM [23] of 78% and a remaining binding at 0.1 µM [24] of 95%.
